Data as given in patent US5061794A, “Cephalosporin derivatives, and antibacterial agents” (priority 1986, dated 1991).
Converted amounts (≈) assume the structure as drawn. Where a name gives a salt, the structure may show the parent alone. Read-outs that look alike come from different tables or passages of the source.

Columns and labels:
[1] = system: Ps. cepacia 23; assay: in vitro antibacterial activity, agar plate dilution method (MIC); type: cell-based, Pseudomonas cepacia; settings: read-out: Minimum Inhibitory Concentration (MIC)
Procedure: (§1) The in vitro antibacterial activities of the compounds of the present invention against various microorganisms, were measured by the following agar plate dilution method. One platinum loopfull of each test microorganism incubated overnight in Mueller Hinton broth, was inoculated to Mueller Hinton agar (inoculum size: 10^6 CFU/ml). Such culture media containing various antibiotics in various concentrations were prepared. After incubation at 37° C. for 16 hours, the minimum inhibitory concentrations (MIC: μg/ml) were measured.

[2] = system: A. calcoaceticus No. 4; assay: as above; type: cell-based, Acinetobacter calcoaceticus; settings: Acinetobacter calcoaceticus, NO.4, 16 h, 10^6 CFU/ml
Procedure: as §1

[3] = system: E. coli CSH2 (RK1); assay: microbe, parasite or virus in culture; type: cell-based; settings: Escherichia coli, 16 h, read-out: Minimum Inhibitory Concentration (MIC), *E. coli CSH2 (RK1), lactamase-producing strain; 10^6 CFU/ml
Procedure: as §1

[4] = system: E. coli CSH(RE45); assay: microbe, parasite or virus in culture; type: cell-based; settings: Escherichia coli, 16 h, read-out: Minimum Inhibitory Concentration (MIC), *E. coli CSH(RE45), lactamase-producing strain; 10^6 CFU/ml
Procedure: as §1

[5] = system: Ps. aeruginosa AK 109; assay: in vitro antibacterial activity, agar plate dilution method (MIC); type: cell-based, Pseudomonas aeruginosa; settings: Pseudomonas aeruginosa, AK109, 16 h, read-out: Minimum Inhibitory Concentration (MIC)
Procedure: as §1

[6] = system: Ps. aeruginosa AKR17; assay: as above; type: cell-based, Pseudomonas aeruginosa; settings: Pseudomonas aeruginosa, 16 h; Ps. aeruginosa AKR17; 10^6 CFU/ml; read-out: Minimum Inhibitory Concentration (MIC)
Procedure: as §1

[7] = system: Ps. aeruginosa IF03445; assay: as above; type: cell-based, Pseudomonas aeruginosa; settings: Pseudomonas aeruginosa, 10^6 CFU/ml
Procedure: as §1

[8] = system: E. coli NIHJ JC2; assay: as above; type: cell-based; settings: Escherichia coli
Procedure: as §1

[9] = system: P. vulgaris No. 33; assay: as above; type: cell-based; settings: Proteus vulgaris, 10^6 CFU/ml
Procedure: as §1

[10] = system: E. cloacae 963; assay: as above; type: cell-based; settings: 10^6 CFU/ml
Procedure: as §1

[11] = system: K. oxytoca GN10650; assay: as above; type: cell-based; settings: Klebsiella oxytoca, GN10650, 16 h, read-out: Minimum Inhibitory Concentration (MIC), *K. oxytoca GN10650, lactamase-producing strain; 10^6 CFU/ml
Procedure: as §1

[12] = system: P. vulgaris HX-19; assay: as above; type: cell-based; settings: Proteus vulgaris, HX19, 16 h, read-out: Minimum Inhibitory Concentration (MIC)
Procedure: as §1

[13] = system: K. pneumoniae No. 42; assay: as above; type: cell-based; settings: Klebsiella pneumoniae, 10^6 CFU/ml
Procedure: as §1

[14] = system: E. cloacae Nek 39; assay: as above; type: cell-based; settings: Enterobacter cloacae, NEK39, 16 h, 10^6 CFU/ml
Procedure: as §1

[15] = system: E. coli GN5482; assay: as above; type: cell-based; settings: Escherichia coli, read-out: Minimum Inhibitory Concentration (MIC)
Procedure: as §1

[16] = system: S. marcescens IAM 1184; assay: as above; type: cell-based; settings: Serratia marcescens, IAM1184, 16 h, S. marcescens IAM 1184; 10^6 CFU/ml; read-out: Minimum Inhibitory Concentration (MIC)
Procedure: as §1

[17] = system: K. pneumoniae PCI-602; assay: as above; type: cell-based; settings: Klebsiella pneumoniae, PCI602, 16 h, 10^6 CFU/ml
Procedure: as §1

[18] = system: S. aureus 209P NIHJ-JC1; assay: as above; type: cell-based; settings: Staphylococcus aureus, 16 h, read-out: Minimum Inhibitory Concentration (MIC)
Procedure: as §1

[19] = system: M. morganii GN5407; assay: as above; type: cell-based; settings: Morganella morganii, 10^6 CFU/ml
Procedure: as §1

[20] = system: S. marcescens No. 16-2; assay: as above; type: cell-based; settings: Serratia marcescens, NO.162, 16 h, 10^6 CFU/ml
Procedure: as §1

[21] = A. calcoaceticus No. 4, read-out: Minimum Inhibitory Concentration (MIC)
[22] = Enterobacter cloacae, 16 h, E. cloacae 963, read-out: Minimum Inhibitory Concentration (MIC)
[23] = 16 h, *E. coli GN5482, lactamase-producing strain, 10^6 CFU/ml
[24] = read-out: Minimum Inhibitory Concentration (MIC), K. pneumoniae PCI-602
[25] = read-out: Minimum Inhibitory Concentration (MIC), *S. marcescens No. 16-2, lactamase-producing strain
[26] = IF03445, 16 h, read-out: Minimum Inhibitory Concentration (MIC), Ps. aeruginosa IF03445
[27] = NIHJJC2, 16 h, read-out: Minimum Inhibitory Concentration (MIC), E. coli NIHJ JC2, 10^6 CFU/ml, 37° C.
[28] = NO.33, 16 h, read-out: Minimum Inhibitory Concentration (MIC), *P. vulgaris No. 33, lactamase-producing strain
[29] = NO.42, 16 h, read-out: Minimum Inhibitory Concentration (MIC), *K. pneumoniae No. 42, lactamase-producing strain
[30] = read-out: Minimum Inhibitory Concentration (MIC), *E. cloacae Nek 39, lactamase-producing strain
[31] = GN5407, 16 h, read-out: Minimum Inhibitory Concentration (MIC), *M. morganii GN5407, lactamase-producing strain

Row | Compound | MIC ([1]; Burkholderia cepacia, 23, 16 h) [µg/mL] | MIC [2, 21] [µg/mL] | MIC [3] [µg/mL] | MIC [4] [µg/mL] | MIC [6] [µg/mL] | MIC [10, 22] [µg/mL] | MIC [11] [µg/mL] | MIC ([12]; P. vulgaris HX-19, 10^6 CFU/ml) [µg/mL] | MIC [15, 23] [µg/mL] | MIC [16] [µg/mL] | MIC [17, 24] [µg/mL] | MIC [18] [µg/mL] | MIC [20, 25] [µg/mL] | MIC [5] [µg/mL] | MIC [7, 26] [µg/mL] | MIC [8, 27] [µg/mL] | MIC [9, 28] [µg/mL] | MIC [13, 29] [µg/mL] | MIC [14, 30] [µg/mL] | MIC [19, 31] [µg/mL] | also measured
1 | CO/N=C(\C(=O)N[C@@H]1C(=O)N2C(C(=O)O)=C(CSc3nnc(-c4ccccc4)o3)CS[C@H]12)c1csc(N)n1 [compound 1, 7β-[2-(2-aminothiazol-4-yl)-2-methoxyiminoacetamido]-3-(5-phenyl-1,3,4-oxadiazol-2-yl)thiomethyl-3-cephem-4-carboxylic acid trifluoroacetate, reference compound] | 12.5 | 100 | 0.39 | 0.39 | > 100 | 1.56 | 6.25 | < 0.006 | 0.78 | 1.56 | 0.0125 | 0.39 | 6.25 | – | – | – | – | – | – | – | MIC ([5]; Ps. aeruginosa AK 109, 10^6 CFU/ml): 50 µg/mL; MIC ([7]; 16 h, Ps. aeruginosa IF03445, read-out: Minimum Inhibitory Concentration (MIC)): > 100 µg/mL; MIC ([8]; NIHJJC2, E. coli NIHJ JC2, 10^6 CFU/ml, 37° C., 16 hours, read-out: Minimum Inhibitory Concentration (MIC)): 0.78 µg/mL; MIC ([9]; 16 h, *P. vulgaris No. 33, lactamase-producing strain, read-out: Minimum Inhibitory Concentration (MIC)): 0.78 µg/mL; MIC ([13]; 16 h, *K. pneumoniae No. 42, lactamase-producing strain, read-out: Minimum Inhibitory Concentration (MIC)): 1.56 µg/mL; MIC ([14]; *E. cloacae Nek 39, lactamase-producing strain, read-out: Minimum Inhibitory Concentration (MIC)): 3.12 µg/mL; MIC ([19]; 16 h, *M. morganii GN5407, lactamase-producing strain, read-out: Minimum Inhibitory Concentration (MIC)): 0.78 µg/mL
2 | CCON=C(C(=O)NC1C(=O)N2C(C(=O)O)=C(CSc3nc(C(=O)O)c(-c4ccc(O)c(O)c4)s3)CSC12)c1csc(N)n1 (stereo not drawn) [compound 53, disodium 7β-[2-(2-aminothiazol-4-yl)-2-ethoxyiminoacetamido]-3-[4-carboxylate-5-(3,4-dihydroxyphenyl)thiazol-2-yl]thiomethyl-3-cephem-4-carboxylate] | – | – | 0.0125 | 0.025 | 50 | 0.1 | 3.12 | – | – | 0.05 | < 0.006 | 12.5 | 6.25 | 3.12 | 3.12 | 0.78 | 0.025 | 0.1 | 0.39 | 0.05 | MIC ([1]; Burkholderia cepacia, 16 h, Ps. cepacia 23, 10^6 CFU/ml): 0.025 µg/mL; MIC ([2]; read-out: Minimum Inhibitory Concentration (MIC), A. calcoaceticus No. 4): 0.39 µg/mL; MIC [12]: 0.0125 µg/mL; MIC ([15]; GN5482, 16 h): 3.12 µg/mL
3 | CC(C)(O/N=C(\C(=O)N[C@@H]1C(=O)N2C(C(=O)O)=C(CSc3nc(C(=O)O)c(-c4ccccc4)s3)CS[C@H]12)c1csc(N)n1)C(=O)O [compound 14, reference compound] | 0.78 (≈ 1.11 µM) | 50 (≈ 70.9 µM) | 1.56 (≈ 2.21 µM) | 1.56 (≈ 2.21 µM) | > 100 | – | 1.56 (≈ 2.21 µM) | < 0.006 | 3.12 (≈ 4.43 µM) | 0.1 (≈ 0.142 µM) | – | – | – | 12.5 (≈ 17.7 µM) | 12.5 (≈ 17.7 µM) | 1.56 (≈ 2.21 µM) | 0.025 (≈ 0.0355 µM) | 1.56 (≈ 2.21 µM) | 12.5 (≈ 17.7 µM) | 0.2 (≈ 0.284 µM) | MIC ([10]; Enterobacter cloacae, 963, 16 h, read-out: Minimum Inhibitory Concentration (MIC), E. cloacae 963): 1.56 µg/mL (≈ 2.21 µM); MIC ([17]; K. pneumoniae PCI-602, read-out: Minimum Inhibitory Concentration (MIC)): 0.2 µg/mL (≈ 0.284 µM); MIC ([18]; S. aureus 209P NIHJ-JC1, 10^6 CFU/ml, 37° C., 16 hours): 50 µg/mL (≈ 70.9 µM); MIC ([20]; *S. marcescens No. 16-2, lactamase-producing strain, read-out: Minimum Inhibitory Concentration (MIC)): 25 µg/mL (≈ 35.5 µM)
